Here are results for 22 compounds from US8008279B2, “Compound—827” (AstraZeneca AB, priority 2007, dated 2011).

The assay has as its target T1, rhuman cathepsin K (Homo sapiens, UniProt P43235).
T1 sequence (P43235 115-329): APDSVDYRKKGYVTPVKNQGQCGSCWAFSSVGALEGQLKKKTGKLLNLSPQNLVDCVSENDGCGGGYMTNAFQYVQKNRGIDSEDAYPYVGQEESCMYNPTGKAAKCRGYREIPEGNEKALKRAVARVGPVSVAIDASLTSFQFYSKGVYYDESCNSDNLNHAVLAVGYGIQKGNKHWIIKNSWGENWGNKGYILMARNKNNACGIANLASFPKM
The experiment in a line: Assay for identification of Cathepsin K inhibitors (QFRET, cleavage of Z-Phe-Arg-AMC). Particulars: 0.5 nM rhuman cathepsin K, Z-Phe-Arg-AMC substrate, 30 min pre-incubation, 1 h incubation at room temperature; mean of two separate occasions; read-out: CatK FRET Mean pIC50 (converted). Type of assay: biochemical. As for the experimental part: 0.5 nM [final] rhuman cathepsin K in phosphate buffer was added to a 384-well black microtitre plate containing investigative compounds. The enzyme and compound were pre-incubated at room temperature for 30 minutes before the addition of […] [final] Z-Phe-Arg-AMC synthetic substrate in phosphate buffer. The plates were covered and incubated for 1 h at room temperature, protected from light. Following the incubation the reaction was stopped with 7.5% [final]acetic acid. Relative fluorescence was measured using the Ultra plate reader at a wavelength of 360 nm excitation and 425 nm emission.
Data was corrected for background fluorescence (minimum controls without enzyme).
As for `N#CC1(NC(=O)[C@@H]2CCCC[C@H]2C(=O)N2CCc3[nH]c4ccc(F)cc4c3C2)CC1` [Example 1, (1R,2R)-N-(1-cyanocyclopropyl)-2-[(8-fluoro-1,3,4,5-tetrahydro-2H-pyrido[4,3-b]indol-2-yl)carbonyl]cyclohexanecarboxamide], the IC50 is 0.849 nM.

Regarding `N#CC1(NC(=O)[C@@H]2CCCC[C@H]2C(=O)N2CCc3[nH]c4ccc(Cl)cc4c3C2)CC1` [Example 2, (1R,2R)-2-[(8-chloro-1,3,4,5-tetrahydro-2H-pyrido[4,3-b]indol-2-yl)carbonyl]-N-(1-cyanocyclopropyl)cyclohexanecarboxamide], the IC50 is 2.99 nM. For `N#CC1(NC(=O)[C@@H]2CCCC[C@H]2C(=O)N2CCc3[nH]c4c(F)cccc4c3C2)CC1` [Example 3, (1R,2R)-N-(1-cyanocyclopropyl)-2-[(6-fluoro-1,3,4,5-tetrahydro-2H-pyrido[4,3-b]indol-2-yl)carbonyl]cyclohexanecarboxamide], the IC50 was 0.767 nM.

In the case of `N#CC1(NC(=O)[C@@H]2CCCC[C@H]2C(=O)N2CCc3[nH]c4ccccc4c3C2)CC1` [Example 4, (1R,2R)-N-(1-cyanocyclopropyl)-2-(1,3,4,5-tetrahydro-2H-pyrido[4,3-b]indol-2-ylcarbonyl)cyclohexanecarboxamide], the IC50 is 1.3 nM. `N#CC1(NC(=O)[C@@H]2CCCC[C@H]2C(=O)N2CCc3[nH]c4ccc(Br)cc4c3C2)CC1` [Example 5, (1R,2R)-2-[(8-bromo-1,3,4,5-tetrahydro-2H-pyrido[4,3-b]indol-2-yl)carbonyl]-N-(1-cyanocyclopropyl)cyclohexanecarboxamide]: the IC50 was 6.38 nM.

For the compound `N#CC1(NC(=O)[C@@H]2CCCC[C@H]2C(=O)N2CCc3[nH]c4ccc(C(F)(F)F)cc4c3C2)CC1` [Example 7, (1R,2R)-N-(1-cyanocyclopropyl)-2-{[8-(trifluoromethyl)-1,3,4,5-tetrahydro-2H-pyrido[4,3-b]indol-2-yl]carbonyl}cyclohexanecarboxamide], the IC50 is 42.1 nM. Take `COc1ccc2[nH]c3c(c2c1)CN(C(=O)[C@@H]1CCCC[C@H]1C(=O)NC1(C#N)CC1)CC3` [Example 8, (1R,2R)-N-(1-cyanocyclopropyl)-2-[(8-methoxy-1,3,4,5-tetrahydro-2H-pyrido[4,3-b]indol-2-yl)carbonyl]cyclohexanecarboxamide]: the IC50 was 40.7 nM. With `N#CC1(NC(=O)[C@@H]2CCCC[C@H]2C(=O)N2CCc3[nH]c4cccc(F)c4c3C2)CC1` [Example 9, (1R,2R)-N-(1-cyanocyclopropyl)-2-[(9-fluoro-1,3,4,5-tetrahydro-2H-pyrido[4,3-b]indol-2-yl)carbonyl]cyclohexanecarboxamide], the IC50 was 49.9 nM. Take `N#CC1(NC(=O)[C@@H]2CCCC[C@H]2C(=O)N2CCc3[nH]c4cc(F)ccc4c3C2)CC1` [Example 10, (1R,2R)-N-(1-cyanocyclopropyl)-2-[(7-fluoro-1,3,4,5-tetrahydro-2H-pyrido[4,3-b]indol-2-yl)carbonyl]cyclohexanecarboxamide]: the IC50 is 10.2 nM.

On to `CC(C)c1ccc2[nH]c3c(c2c1)CN(C(=O)[C@@H]1CCCC[C@H]1C(=O)NC1(C#N)CC1)CC3` [Example 11, (1R,2R)-N-(1-cyanocyclopropyl)-2-[(8-isopropyl-1,3,4,5-tetrahydro-2H-pyrido[4,3-b]indol-2-yl)carbonyl]cyclohexanecarboxamide], for which the IC50 is 3.67 nM. In the case of `Cn1c2c(c3cc(F)ccc31)CN(C(=O)[C@@H]1CCCC[C@H]1C(=O)NC1(C#N)CC1)CC2` [Example 12, (1R,2R)-N-(1-cyanocyclopropyl)-2-[(8-fluoro-5-methyl-1,3,4,5-tetrahydro-2H-pyrido[4,3-b]indol-2-yl)carbonyl]cyclohexanecarboxamide], the IC50 was 2.84 nM. For the compound `N#CC1(NC(=O)[C@@H]2CCCC[C@H]2C(=O)N2CCc3[nH]c4c(Br)cccc4c3C2)CC1` [Example 13, (1R,2R)-2-[(6-bromo-1,3,4,5-tetrahydro-2H-pyrido[4,3-b]indol-2-yl)carbonyl]-N-(1-cyanocyclopropyl)cyclohexanecarboxamide], the IC50 was 2.24 nM.

Take `N#CC1(NC(=O)[C@@H]2CCCC[C@H]2C(=O)N2CCc3[nH]c4ncccc4c3C2)CC1` [Example 14]: the IC50 is 1.07 nM.

In the case of `CN(C)Cc1ccc2[nH]c3c(c2c1)CN(C(=O)[C@@H]1CCCC[C@H]1C(=O)NC1(C#N)CC1)CC3` [Example 15, (1R,2R)-N-(1-cyanocyclopropyl)-2-({8-[(dimethylamino)methyl]-1,3,4,5-tetrahydro-2H-pyrido[4,3-b]indol-2-yl}carbonyl)cyclohexanecarboxamide], the IC50 was 8.91 nM. With `CS(=O)(=O)c1ccc2[nH]c3c(c2c1)CN(C(=O)[C@@H]1CCCC[C@H]1C(=O)NC1(C#N)CC1)CC3` [Example 16, (1R,2R)-N-(1-cyanocyclopropyl)-2-{[8-(methylsulfonyl)-1,3,4,5-tetrahydro-2H-pyrido[4,3-b]indol-2-yl]carbonyl}cyclohexanecarboxamide] the figure was 78.5 nM; with `COc1cccc2c3c([nH]c12)CCN(C(=O)[C@@H]1CCCC[C@H]1C(=O)NC1(C#N)CC1)C3` [Example 17, (1R,2R)-N-(1-cyanocyclopropyl)-2-[(6-methoxy-1,3,4,5-tetrahydro-2H-pyrido[4,3-b]indol-2-yl)carbonyl]cyclohexanecarboxamide], 0.658 nM; with `N#CC1(NC(=O)[C@@H]2CCCC[C@H]2C(=O)N2Cc3ccccc3C3(CCNCC3)C2)CC1` [Example 18, (1R,2R)-N-(1-cyanocyclopropyl)-2-(1H-spiro[isoquinoline-4,4′-piperidin]-2(3H)-ylcarbonyl)cyclohexanecarboxamide], 7.1 nM. The value for `N#CC1(NC(=O)[C@@H]2CCCC[C@H]2C(=O)N2CCc3[nH]c4c(Cl)cccc4c3C2)CC1` [Example 19, (1R,2R)-2-[(6-chloro-1,3,4,5-tetrahydro-2H-pyrido[4,3-b]indol-2-yl)carbonyl]-N-(1-cyanocyclopropyl)cyclohexanecarboxamide] was 1.78 nM; that for `N#Cc1cccc2c3c([nH]c12)CCN(C(=O)[C@@H]1CCCC[C@H]1C(=O)NC1(C#N)CC1)C3` [Example 20, (1R,2R)-N-(1-cyanocyclopropyl)-2-[(6-cyano-1,3,4,5-tetrahydro-2H-pyrido[4,3-b]indol-2-yl)carbonyl]cyclohexanecarboxamide] was 1.91 nM; that for `Cn1c2c(c3cccnc31)CN(C(=O)[C@@H]1CCCC[C@H]1C(=O)NC1(C#N)CC1)CC2` [Example 21, (1R,2R)-N-(1-cyanocyclopropyl)-2-[(9-methyl-5,7,8,9-tetrahydro-6H-pyrrolo[2,3-b:4,5-c′]dipyridin-6-yl)carbonyl]cyclohexanecarboxamide] was 1.46 nM. As for `CSc1cccc2c3c([nH]c12)CCN(C(=O)[C@@H]1CCCC[C@H]1C(=O)NC1(C#N)CC1)C3` [Example 22, (1R,2R)-N-(1-cyanocyclopropyl)-2-{[6-(methylthio)-1,3,4,5-tetrahydro-2H-pyrido[4,3-b]indol-2-yl]carbonyl}cyclohexanecarboxamide], the IC50 is 4.32 nM. Take `N#CC1(NC(=O)[C@@H]2CCCC[C@H]2C(=O)N2CCc3oc4ccccc4c3C2)CC1` [Example 23, (1R,2R)-N-(1-cyanocyclopropyl)-2-[(benzofuro[3,2-c]-1,2,3,4-tetrahydropyridyl)carbonyl]cyclohexanecarboxamide]: the IC50 is 2.24 nM.
